Experimental data: US20060112494A1, “Method of protecting an animal skin product from metalloproteinase activity” (priority 2004, published 2006)
Where two headings read alike, the source gives them in different places.

Key:
[1] = system: collagenase; settings: for Collagenase Activity/Days 1: day 1; for Collagenase Activity/Days 2: day 2; for Collagenase Activity/Days 4: day 4; for Collagenase Activity/Days 7: day 7;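 for all read-outs here: nutrient agar containing 0.5% Azocoll with inhibitor, topped by a fresh hide piece, kept at 30 °C, collagenase from hide bacteria scored visually as clearing zone around growth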
Experimental: Nutrient agar amended with 0.5% AZOCOLL was used as the test medium to study collagenase activity. The nutrient agar was prepared and autoclaved and then was cooled to 55° C. Azocol was added to give a final concentration of 0.5%. […] Fresh hides were obtained from a tannery and were cut into pieces of approximately 2 cm square. One 2×2 cm hide sample was placed on top of the agar containing the inhibitors. Treated samples were incubated at 30° C. and evaluated after 24 hours, 2 days, 3 or 4 days and 7 days for collagenase activity and also for the growth of the bacteria. The bacteria from the hides secreted collagenase into the medium as they grew to degrade the collagen in the azocoll medium and collagenase activity was determined by visual inspection of the clear zone around the bacteria

[2] = system: mixed bacteria on fresh hide samples; design: Growth/Days 2 / Growth/Days 4: key to the marks not given beside the values; settings: for Growth/Days 1: day 1; for Growth/Days 2: day 2; for Growth/Days 4: day 4;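 for all read-outs here: fresh hide pieces laid on inhibitor-containing nutrient agar supplemented with 0.5% Azocoll, incubated at 30 °C, then scored for growth of bacteria originating from the hide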

O=C([O-])CN(CCN(CC(=O)[O-])CC(=O)O)CC(=O)[O-].[Na+].[Na+].[Na+] [Na3EDTA, ethylenediaminetetraacetic acid trisodium salt]
Collagenase Activity/Days 1 ([1]; Conc. 0.025%): ++++
Collagenase Activity/Days 2 ([1]; Conc. 0.025%): ++++
Collagenase Activity/Days 4 ([1]; Conc. 0.025%): ++++
Collagenase Activity/Days 7 ([1]; Conc. 0.025%): ++++
Collagenase Activity/Days 1 ([1]; Conc. 0.05%): ++
Collagenase Activity/Days 2 ([1]; Conc. 0.05%): +++
Collagenase Activity/Days 4 ([1]; Conc. 0.05%): ++++
Collagenase Activity/Days 7 ([1]; Conc. 0.05%): ++++
Collagenase Activity/Days 1 ([1]; Conc. 0.075%): 0
Collagenase Activity/Days 2 ([1]; Conc. 0.075%): +
Collagenase Activity/Days 4 ([1]; Conc. 0.075%): +++
Collagenase Activity/Days 7 ([1]; Conc. 0.075%): ++++
Collagenase Activity/Days 1 ([1]; Conc. 0.1%): 0
Collagenase Activity/Days 2 ([1]; Conc. 0.1%): +
Collagenase Activity/Days 4 ([1]; Conc. 0.1%): +++
Collagenase Activity/Days 7 ([1]; Conc. 0.1%): +++
Collagenase Activity/Days 1 ([1]; Conc. 0.2%): 0
Collagenase Activity/Days 2 ([1]; Conc. 0.2%): 0
Collagenase Activity/Days 4 ([1]; Conc. 0.2%): ++
Collagenase Activity/Days 7 ([1]; Conc. 0.2%): +++
Collagenase Activity/Days 1 ([1]; Conc. 0.3%): 0
Collagenase Activity/Days 2 ([1]; Conc. 0.3%): 0
Collagenase Activity/Days 4 ([1]; Conc. 0.3%): +
Collagenase Activity/Days 7 ([1]; Conc. 0.3%): ++
Collagenase Activity/Days 1 ([1]; Conc. 0.4%): 0
Collagenase Activity/Days 2 ([1]; Conc. 0.4%): 0
Collagenase Activity/Days 4 ([1]; Conc. 0.4%): 0
Collagenase Activity/Days 7 ([1]; Conc. 0.4%): +
Collagenase Activity/Days 1 ([1]; Conc. 0.5%): 0
Collagenase Activity/Days 2 ([1]; Conc. 0.5%): 0
Collagenase Activity/Days 4 ([1]; Conc. 0.5%): 0
Collagenase Activity/Days 7 ([1]; Conc. 0.5%): +
Growth/Days 1 ([2]; Conc. 0.025%): ++++
Growth/Days 2 ([2]; Conc. 0.025%): ++++
Growth/Days 4 ([2]; Conc. 0.025%): ++++
Growth/Days 1 ([2]; Conc. 0.05%): ++++
Growth/Days 2 ([2]; Conc. 0.05%): ++++
Growth/Days 4 ([2]; Conc. 0.05%): ++++
Growth/Days 1 ([2]; Conc. 0.075%): ++++
Growth/Days 2 ([2]; Conc. 0.075%): ++++
Growth/Days 4 ([2]; Conc. 0.075%): ++++
Growth/Days 1 ([2]; Conc. 0.1%): ++++
Growth/Days 2 ([2]; Conc. 0.1%): ++++
Growth/Days 4 ([2]; Conc. 0.1%): ++++
Growth/Days 1 ([2]; Conc. 0.2%): ++++
Growth/Days 2 ([2]; Conc. 0.2%): ++++
Growth/Days 4 ([2]; Conc. 0.2%): ++++
Growth/Days 1 ([2]; Conc. 0.3%): +++
Growth/Days 2 ([2]; Conc. 0.3%): +++
Growth/Days 4 ([2]; Conc. 0.3%): +++
Growth/Days 1 ([2]; Conc. 0.4%): ++++
Growth/Days 2 ([2]; Conc. 0.4%): ++++
Growth/Days 4 ([2]; Conc. 0.4%): ++++
Growth/Days 1 ([2]; Conc. 0.5%): ++
Growth/Days 2 ([2]; Conc. 0.5%): ++++
Growth/Days 4 ([2]; Conc. 0.5%): ++++

O=C([O-])CN(CCN(CC(=O)[O-])CC(=O)[O-])CC(=O)[O-].[Na+].[Na+].[Na+].[Na+] [Na4EDTA, ethylenediaminetetraacetic acid tetrasodium salt]
Collagenase Activity/Days 1 ([1]; Conc. 0.025%): ++++
Collagenase Activity/Days 2 ([1]; Conc. 0.025%): ++++
Collagenase Activity/Days 4 ([1]; Conc. 0.025%): ++++
Collagenase Activity/Days 7 ([1]; Conc. 0.025%): ++++
Collagenase Activity/Days 1 ([1]; Conc. 0.05%): ++++
Collagenase Activity/Days 2 ([1]; Conc. 0.05%): ++++
Collagenase Activity/Days 4 ([1]; Conc. 0.05%): ++++
Collagenase Activity/Days 7 ([1]; Conc. 0.05%): ++++
Collagenase Activity/Days 1 ([1]; Conc. 0.075%): +
Collagenase Activity/Days 2 ([1]; Conc. 0.075%): ++
Collagenase Activity/Days 4 ([1]; Conc. 0.075%): +++
Collagenase Activity/Days 7 ([1]; Conc. 0.075%): ++++
Collagenase Activity/Days 1 ([1]; Conc. 0.1%): 0
Collagenase Activity/Days 2 ([1]; Conc. 0.1%): +
Collagenase Activity/Days 4 ([1]; Conc. 0.1%): ++
Collagenase Activity/Days 7 ([1]; Conc. 0.1%): +++
Collagenase Activity/Days 1 ([1]; Conc. 0.2%): 0
Collagenase Activity/Days 2 ([1]; Conc. 0.2%): +
Collagenase Activity/Days 4 ([1]; Conc. 0.2%): ++
Collagenase Activity/Days 7 ([1]; Conc. 0.2%): +++
Collagenase Activity/Days 1 ([1]; Conc. 0.3%): 0
Collagenase Activity/Days 2 ([1]; Conc. 0.3%): +
Collagenase Activity/Days 4 ([1]; Conc. 0.3%): +
Collagenase Activity/Days 7 ([1]; Conc. 0.3%): +++
Collagenase Activity/Days 1 ([1]; Conc. 0.4%): 0
Collagenase Activity/Days 2 ([1]; Conc. 0.4%): +
Collagenase Activity/Days 4 ([1]; Conc. 0.4%): +
Collagenase Activity/Days 7 ([1]; Conc. 0.4%): +++
Collagenase Activity/Days 1 ([1]; Conc. 0.5%): 0
Collagenase Activity/Days 2 ([1]; Conc. 0.5%): 0
Collagenase Activity/Days 7 ([1]; Conc. 0.5%): ++
Growth/Days 1 ([2]; Conc. 0.025%): ++++
Growth/Days 2 ([2]; Conc. 0.025%): ++++
Growth/Days 4 ([2]; Conc. 0.025%): ++++
Growth/Days 1 ([2]; Conc. 0.05%): ++++
Growth/Days 2 ([2]; Conc. 0.05%): ++++
Growth/Days 4 ([2]; Conc. 0.05%): ++++
Growth/Days 1 ([2]; Conc. 0.075%): ++++
Growth/Days 2 ([2]; Conc. 0.075%): ++++
Growth/Days 4 ([2]; Conc. 0.075%): ++++
Growth/Days 1 ([2]; Conc. 0.1%): ++++
Growth/Days 2 ([2]; Conc. 0.1%): ++++
Growth/Days 4 ([2]; Conc. 0.1%): ++++
Growth/Days 1 ([2]; Conc. 0.2%): ++++
Growth/Days 2 ([2]; Conc. 0.2%): ++++
Growth/Days 4 ([2]; Conc. 0.2%): ++++
Growth/Days 1 ([2]; Conc. 0.3%): ++++
Growth/Days 2 ([2]; Conc. 0.3%): ++++
Growth/Days 4 ([2]; Conc. 0.3%): ++++
Growth/Days 1 ([2]; Conc. 0.4%): ++++
Growth/Days 2 ([2]; Conc. 0.4%): ++++
Growth/Days 4 ([2]; Conc. 0.4%): ++++
Growth/Days 1 ([2]; Conc. 0.5%): ++++
Growth/Days 2 ([2]; Conc. 0.5%): ++++
Growth/Days 4 ([2]; Conc. 0.5%): ++++
